According to PMC9098913, “In vitro reconstitution of Escherichia coli divisome activation” (Nature Communications, 2022):
Values joined by “and” are separate entries in the source; they are usually repeats but may differ in a detail not shown here. Equal entries are not always repeated.

Assays:
FtsA self-interaction [1] = test: Cuvette FRET of FtsA in solution and with lipid vesicles (SUVs); format: binding, E. coli; conditions: for FRET efficiency: Fig. S3c, in cuvette
Description: For in solution FRET experiments, increasing concentrations of Cy3-FtsA and Cy5-FtsA in a 50:50 ratio were mixed in 100 µl reaction buffer (50 mM Tris-HCl [pH7.4], 150 mM KCl and 5 mM MgCl2) inside a quartz cuvette (Hellma® fluorescence cuvettes, ultra Micro). The spectrums were measured using a Spectrophotometer Spectramax M2e Plate- + Cuvette Reader (Molecular Devices). Cy3-FtsA was excited at a wavelength of 520 nm and the resulting emission spectrum was recorded from 550–700 nm in 1 nm steps. To avoid crosstalk of the excitation light, a cutoff filter was set to 550 nm. Addition of ATP or small unilamellar vesicles (SUVs) was measured individually for each concentration. Buffer controls containing the corresponding reagents and only Cy5-FtsA were measured and used as background corrections for measurements with Cy3- and Cy5-FtsA. Background corrected spectra were used to estimate FRET efficiency by E(%)=Fa/Fd+Fa⋅100 , where Fa is the peak of acceptor (=Cy5) emission at 670 nm and Fd the peak of the emission of the donor (=Cy3) spectrum at 565 nm.

FtsA self-interaction [2] = test: FRET (acceptor photobleaching) self-interaction of FtsA on supported lipid bilayers; format: binding, E. coli
Source text: To directly measure FtsA self-interaction in our fluorescence microscopy experiments, we established a FRET (Förster resonance energy transfer)-based assay using FtsA labelled with either Cy5 (acceptor) or Cy3 (donor). […] We then decided to use this approach to measure the degree of FtsA self-interaction on supported lipid membranes by quantifying the increase in donor fluorescence after photobleaching the acceptor fluorophore[30]–[32] (Fig. 3c–e and Fig. S3d). […] As a negative control, we also attached the Hexahistidine-SUMO-tag (His-SUMO) labelled with Cy5 and Cy3 to membranes with an increasing density of Tris-NTA lipids.
Equimolar concentrations of Cy3- and Cy5-labelled FtsA, supplemented with 20% unlabelled FtsA were used to study FRET and FRAP. Five pre-bleach frames were acquired, followed by acceptor photobleaching of a rectangular ROI with 40% 641 nm laser power and a dwell size of 1 µs/pixel, 75% overlapping lines. The recovery of the signal or the increase in donor intensity were measured with either two frames or one frame per second.
Bleaching the acceptor dye leads to an increase in the donor intensity, which can be used to quantify the Foerster Resonance energy transfer (FRET)[48]. FRET efficiency was quantified with E%=Ipost/Ipost+Ipre⋅100 , where Ipost is the intensity of the […] and Ipre is the […]. […] To extract the contribution of both processes, we adjusted a routine recently published by Gerganova et al.[33]. In short, the code provides the contribution of both modes of recovery by analysing the shape of the fluorescence recovery profile. […] Contribution of diffusion leads to a change of the slope of the outer borders of the bleached region (S4h right). Thus, by measuring the change of the slope of the border recovery, diffusion and simple on/off binding can be distinguished. We developed “FRAPdiff”, a graphical user interface, which uses the original fit routine by David Rutkowski. It can be used directly on.tiff movies with annotated bleach regions as ImageJ ROIs. In addition, we added optional bleach correction, user selectable projection axis (x or y), and optional mirroring of the recovery profiles, if bleaching was not symmetric. The original fit routine for estimating the recovery and diffusion dynamics can be found at https://github.com/davidmrutkowski/1DReflectingDiffusion. FRAPdiff is available at 10.5281/zenodo.6400639[49] under the GPLv3 open-source license.

Substance: FtsA WT: wild-type E. coli actin-homologue FtsA, membrane anchor of FtsZ
- FRET efficiency (FtsA self-interaction [1]; + SUVs, 0.05 µM, mean, n = 3): 1.50%
- FRET efficiency (FtsA self-interaction [1]; + SUVs, 0.05 µM, replicate 1): 1.29%
- FRET efficiency (FtsA self-interaction [1]; + SUVs, 0.05 µM, replicate 2): 1.96%
- FRET efficiency (FtsA self-interaction [1]; + SUVs, 0.05 µM, replicate 3): 1.25%
- FRET efficiency (FtsA self-interaction [1]; + SUVs, 0.10 µM, mean, n = 3): 6.63%
- FRET efficiency (FtsA self-interaction [1]; + SUVs, 0.10 µM, replicate 1): 6.56%
- FRET efficiency (FtsA self-interaction [1]; + SUVs, 0.10 µM, replicate 2): 7.39%
- FRET efficiency (FtsA self-interaction [1]; + SUVs, 0.10 µM, replicate 3): 5.94%
- FRET efficiency (FtsA self-interaction [1]; + SUVs, 0.20 µM, mean, n = 3): 7.59%
- FRET efficiency (FtsA self-interaction [1]; + SUVs, 0.20 µM, replicate 1): 8.16%
- FRET efficiency (FtsA self-interaction [1]; + SUVs, 0.20 µM, replicate 2): 7.75%
- FRET efficiency (FtsA self-interaction [1]; + SUVs, 0.20 µM, replicate 3): 6.87%
- FRET efficiency (FtsA self-interaction [1]; without SUVs, 0.05 µM, mean, n = 3): 0.0114%
- FRET efficiency (FtsA self-interaction [1]; without SUVs, 0.05 µM, replicate 1): 0.0544%
- FRET efficiency (FtsA self-interaction [1]; without SUVs, 0.05 µM, replicate 2): -1.50%
- FRET efficiency (FtsA self-interaction [1]; without SUVs, 0.05 µM, replicate 3): 1.48%
- FRET efficiency (FtsA self-interaction [1]; without SUVs, 0.10 µM, mean, n = 3): 1.67%
- FRET efficiency (FtsA self-interaction [1]; without SUVs, 0.10 µM, replicate 1): 1.71%
- FRET efficiency (FtsA self-interaction [1]; without SUVs, 0.10 µM, replicate 2): 2.21%
- FRET efficiency (FtsA self-interaction [1]; without SUVs, 0.10 µM, replicate 3): 1.09%
- FRET efficiency (FtsA self-interaction [1]; without SUVs, 0.20 µM, mean, n = 3): 2.87%
- FRET efficiency (FtsA self-interaction [1]; without SUVs, 0.20 µM, replicate 1): 2.43%
- FRET efficiency (FtsA self-interaction [1]; without SUVs, 0.20 µM, replicate 2): 2.56%
- FRET efficiency (FtsA self-interaction [1]; without SUVs, 0.20 µM, replicate 3): 3.62%
- FRET in solution (FtsA self-interaction [1]; cuvette, no lipid): could not detect any significant FRET signal
- FRET with lipid vesicles (FtsA self-interaction [1]; cuvette, presence of lipid vesicles): FRET increased significantly
- FRET efficiency, mean (FtsA self-interaction [2]; 0.1 µM FtsA + FtsN&Z): 15.28%
- FRET efficiency, mean (FtsA self-interaction [2]; 0.1 µM FtsA + FtsN): 8.5880% and 8.59%
- FRET efficiency, mean (FtsA self-interaction [2]; 0.1 µM FtsA + FtsZ): 7.8480% and 7.85%
- FRET efficiency, mean (FtsA self-interaction [2]; 0.1 µM FtsA alone): 8.1133%
- FRET efficiency, mean (FtsA self-interaction [2]; 0.2 µM FtsA + FtsN&Z): 17.79%
- FRET efficiency, mean (FtsA self-interaction [2]; 0.2 µM FtsA + FtsN): 12.6840% and 12.68%
- FRET efficiency, mean (FtsA self-interaction [2]; 0.2 µM FtsA + FtsZ): 12.5828% and 12.58%
- FRET efficiency, mean (FtsA self-interaction [2]; 0.2 µM FtsA alone): 16.69%
- FRET efficiency, mean (FtsA self-interaction [2]; 0.4 µM FtsA + FtsN&Z): 30.1680% and 30.17%
- FRET efficiency, mean (FtsA self-interaction [2]; 0.4 µM FtsA + FtsN): 27.2922% and 27.29%
- FRET efficiency, mean (FtsA self-interaction [2]; 0.4 µM FtsA + FtsZ): 17.7412% and 17.74%
- FRET efficiency, mean (FtsA self-interaction [2]; 0.4 µM FtsA alone): 22.27%
- FRET efficiency (FtsA self-interaction [2]; 0.4 µM FtsA with FtsNcyto and FtsZ, p-value 0.64): 30.2 ± 9.6%
- FRET efficiency (FtsA self-interaction [2]; 0.4 µM FtsA, p-value 6.12 × 10^−9): 22.1 ± 5.7%
- FRET efficiency, mean (FtsA self-interaction [2]; 0.8 µM FtsA + FtsN&Z): 34.2167% and 34.22%
- FRET efficiency, mean (FtsA self-interaction [2]; 0.8 µM FtsA + FtsN): 29.89%
- FRET efficiency, mean (FtsA self-interaction [2]; 0.8 µM FtsA + FtsZ): 27.1326% and 27.13%
- FRET efficiency, mean (FtsA self-interaction [2]; 0.8 µM FtsA alone): 31.17%
- FRET efficiency (FtsA self-interaction [2]; Fig. S3f, 0.2µM FtsA + N/Z, replicate 1): 17.94%
- FRET efficiency (FtsA self-interaction [2]; Fig. S3f, 0.2µM FtsA + N/Z, replicate 2): 16.55%
- FRET efficiency (FtsA self-interaction [2]; Fig. S3f, 0.2µM FtsA + N/Z, replicate 3): 18.88%
- FRET efficiency (FtsA self-interaction [2]; Fig. S3f, 0.2µM FtsA + N, replicate 1): 7.76%
- FRET efficiency (FtsA self-interaction [2]; Fig. S3f, 0.2µM FtsA + N, replicate 2): 9.38%
- FRET efficiency (FtsA self-interaction [2]; Fig. S3f, 0.2µM FtsA + N, replicate 3): 9.72%
- FRET efficiency (FtsA self-interaction [2]; Fig. S3f, 0.2µM FtsA + Z, replicate 1): 9.62%
- FRET efficiency (FtsA self-interaction [2]; Fig. S3f, 0.2µM FtsA + Z, replicate 2): 10.06%
- FRET efficiency (FtsA self-interaction [2]; Fig. S3f, 0.2µM FtsA + Z, replicate 3): 7.69%
- FRET efficiency (FtsA self-interaction [2]; Fig. S3f, 0.2µM FtsA, replicate 1): 12.55%
- FRET efficiency (FtsA self-interaction [2]; Fig. S3f, 0.2µM FtsA, replicate 2): 13.62%
- FRET efficiency (FtsA self-interaction [2]; Fig. S3f, 0.2µM FtsA, replicate 3): 23.13%
- FRET efficiency (FtsA self-interaction [2]; Fig. S3f, 0.4µM FtsA + N/Z, replicate 1): 16.64%
- FRET efficiency (FtsA self-interaction [2]; Fig. S3f, 0.4µM FtsA + N/Z, replicate 2): 39.69%
- FRET efficiency (FtsA self-interaction [2]; Fig. S3f, 0.4µM FtsA + N/Z, replicate 3): 38.87%
- FRET efficiency (FtsA self-interaction [2]; Fig. S3f, 0.4µM FtsA + N, replicate 1): 18.29%
- FRET efficiency (FtsA self-interaction [2]; Fig. S3f, 0.4µM FtsA + N, replicate 2): 25.77%
- FRET efficiency (FtsA self-interaction [2]; Fig. S3f, 0.4µM FtsA + N, replicate 3): 38.25%
- FRET efficiency (FtsA self-interaction [2]; Fig. S3f, 0.4µM FtsA + Z, replicate 1): 14.31%
- FRET efficiency (FtsA self-interaction [2]; Fig. S3f, 0.4µM FtsA + Z, replicate 2): 10.18%
- FRET efficiency (FtsA self-interaction [2]; Fig. S3f, 0.4µM FtsA + Z, replicate 3): 12.8%
- FRET efficiency (FtsA self-interaction [2]; Fig. S3f, 0.4µM FtsA, replicate 1): 20.04%
- FRET efficiency (FtsA self-interaction [2]; Fig. S3f, 0.4µM FtsA, replicate 2): 14.17%
- FRET efficiency (FtsA self-interaction [2]; Fig. S3f, 0.4µM FtsA, replicate 3): 22.75%
- FRET efficiency (FtsA self-interaction [2]; Fig. S3n, AMP PNP, 0.10 µM FtsA, replicate 1): 2.62%
- FRET efficiency (FtsA self-interaction [2]; Fig. S3n, AMP PNP, 0.10 µM FtsA, replicate 2): -0.01%
- FRET efficiency (FtsA self-interaction [2]; Fig. S3n, AMP PNP, 0.20 µM FtsA, replicate 1): 5.42%
- FRET efficiency (FtsA self-interaction [2]; Fig. S3n, AMP PNP, 0.20 µM FtsA, replicate 2): 10.85%
- FRET efficiency (FtsA self-interaction [2]; Fig. S3n, AMPPNP, 0.10 µM FtsA, summary value): 1.30%
- FRET efficiency (FtsA self-interaction [2]; Fig. S3n, AMPPNP, 0.20 µM FtsA, summary value): 8.14%
- FRET efficiency (FtsA self-interaction [2]; Fig. S3n, AMPPNP, 0.40 µM FtsA, summary value): 9.64%
- FRET efficiency (FtsA self-interaction [2]; Fig. S3n, AMPPNP, 0.80 µM FtsA, summary value): 10.07%
- FRET efficiency (FtsA self-interaction [2]; Fig. S3n, ATP, 0.10 µM FtsA, summary value): 8.36%
- FRET efficiency (FtsA self-interaction [2]; Fig. S3n, ATP, 0.20 µM FtsA, summary value): 16.69%
- FRET efficiency (FtsA self-interaction [2]; Fig. S3n, ATP, 0.40 µM FtsA, summary value): 22.27%
- FRET efficiency (FtsA self-interaction [2]; Fig. S3n, ATP, 0.80 µM FtsA, summary value): 31.17%
- FRET efficiency (FtsA self-interaction [2]; Fig. S3n, ATPgS, 0.10 µM FtsA, summary value): 4.97%
- FRET efficiency (FtsA self-interaction [2]; Fig. S3n, ATPgS, 0.20 µM FtsA, summary value): 9.83%
- FRET efficiency (FtsA self-interaction [2]; Fig. S3n, ATPgS, 0.40 µM FtsA, summary value): 14.66%
- FRET efficiency (FtsA self-interaction [2]; Fig. S3n, ATPgS, 0.80 µM FtsA, summary value): 21.79%
- effect of FtsNcyto on FRET (FtsA self-interaction [2]; presence of FtsNcyto): small FRET increase
